Patent US9487511B2, “Cyclopropanamine compound and use thereof” (Takeda Pharmaceutical Company Limited, priority 2014, dated 2016)
Structures can show the parent of a compound that is named as a salt. Where two headings read alike, the source gives them in different places.

Experiments:
[1] = Evaluation of blood cell number in mouse; type: in vivo; details: male ICR mice, oral, repeated 7 or 9 days
Experimental: All compounds were repeatedly administered to the mice at a dose of 1 mg/kg, 10 mg/kg or 100 mg/kg (body weight) for 7 or 9 days. One day after the final administration of the compound, the whole blood was collected.
Using Sysmex XT-1800i (Sysmex Corporation), the white blood cell number, red blood cell number, and platelet number in the collected whole blood per unit volume were measured. The influence of each compound on each blood cell number was determined by calculating the number with the mean of each blood cell number of the mouse without administration of the compound (0 mg/kg group), and the mean of each blood cell number in the whole blood of a mouse with the administration of the compound.

[2] = Evaluation of hippocampal distribution in mouse; type: in vivo; details: male ICR mice, 10 mg/kg oral; for concentration at 1 h / concentration at 0.5 h: male, ICR, mouse, po, 10 mg/kg; for concentration at 0.5 h: 0.5 h after administration
[3] = 1 h after administration, sulfate

What does the source list for Cc1nnc(NC(=O)c2cc([C@@H]3C[C@H]3NC3CCC3)c(C)s2)s1 [Example 99, 4-((1S,2R)-2-(cyclobutylamino)cyclopropyl)-5-methyl-N-(5-methyl-1,3,4-thiadiazol-2-yl)thiophene-2-carboxamide hydrochloride]?
Platelets, Mean ([1]; 1 mg/kg): 1442 10^3 cells; Red blood cells, Mean ([1]; 1 mg/kg): 892 10^4 cells; White blood cells, Mean ([1]; 1 mg/kg): 399 10 cells; Platelets, Mean ([1]; 10 mg/kg): 1380 10^3 cells; Red blood cells, Mean ([1]; 10 mg/kg): 915 10^4 cells; White blood cells, Mean ([1]; 10 mg/kg): 378 10 cells; Platelets, Mean ([1]; 100 mg/kg): 1519 10^3 cells; Red blood cells, Mean ([1]; 100 mg/kg): 876 10^4 cells; White blood cells, Mean ([1]; 100 mg/kg): 347 10 cells; concentration at 1 h ([2]; hippocampus, 1 h after administration, read-out: Concentration Hippocampus, Mean): 640 ng/g; concentration at 1 h ([2]; plasma, 1 h after administration, read-out: Concentration Plasma, Mean): 2950 ng/mL

Which results are given for Cc1nnc(NC(=O)c2cc([C@@H]3C[C@H]3NC3CCC3)cs2)s1 [Example 118, 4-((1S,2R)-2-(cyclobutylamino)cyclopropyl)-N-(5-methyl-1,3,4-thiadiazol-2-yl)thiophene-2-carboxamide sulfate]?
Platelets, Mean ([1]; 1 mg/kg, sulfate): 1051 10^3 cells; Red blood cells, Mean ([1]; 1 mg/kg, sulfate): 853 10^4 cells; White blood cells, Mean ([1]; 1 mg/kg, sulfate): 299 10 cells; Platelets, Mean ([1]; 10 mg/kg, sulfate): 1158 10^3 cells; Red blood cells, Mean ([1]; 10 mg/kg, sulfate): 907 10^4 cells; White blood cells, Mean ([1]; 10 mg/kg, sulfate): 312 10 cells; Platelets, Mean ([1]; 100 mg/kg, sulfate): 1176 10^3 cells; Red blood cells, Mean ([1]; 100 mg/kg, sulfate): 881 10^4 cells; White blood cells, Mean ([1]; 100 mg/kg, sulfate): 245 10 cells; Concentration Hippocampus, Mean [2, 3]: 0.151 µg/g; Concentration Plasma, Mean [2, 3]: 405 ng/mL

Which results are given for Cc1sc(C(=O)Nc2cnn(C)c2)cc1[C@@H]1C[C@H]1NC1CCC1 [Example 123, 4-((1S,2R)-2-(cyclobutylamino)cyclopropyl)-5-methyl-N-(1-methyl-1H-pyrazol-4-yl)thiophene-2-carboxamide hydrochloride]?
Platelets, Mean ([1]; 1 mg/kg, hydrochloride): 1086 10^3 cells; Red blood cells, Mean ([1]; 1 mg/kg, hydrochloride): 846 10^4 cells; White blood cells, Mean ([1]; 1 mg/kg, hydrochloride): 390 10 cells; Platelets, Mean ([1]; 10 mg/kg, hydrochloride): 1234 10^3 cells; Red blood cells, Mean ([1]; 10 mg/kg, hydrochloride): 854 10^4 cells; White blood cells, Mean ([1]; 10 mg/kg, hydrochloride): 368 10 cells; Platelets, Mean ([1]; 100 mg/kg): 1333 10^3 cells; Red blood cells, Mean ([1]; 100 mg/kg): 866 10^4 cells; White blood cells, Mean ([1]; 100 mg/kg): 380 10 cells; concentration at 0.5 h ([2]; hippocampus, read-out: Concentration Hippocampus, Mean): 369 ng/g; concentration at 0.5 h ([2]; plasma, read-out: Concentration Plasma, Mean): 1110 ng/mL
